Where “and” joins values, the source holds several entries; their conditions need not be identical. Identical values can stand only once.
How the values were obtained:
Assay type in all cases: biochemical
[1] = target: T1, prostaglandin-15-dehydrogenase (Rattus norvegicus, UniProt O08699); assay: Inhibition of prostaglandin F2α inactivation in cell-free rat organ preparations; conditions: for inhibition at 50 µM: 50 μM (A 19,9 μg/ml; C 12,8 μg/ml); for inhibition at 2 µM: 2 μM (0,82 μg/ml)
T1 construct: cellfree preparations of different organs (containing prostaglandin-15-dehydrogenase); from tissue
T1 sequence (O08699 1-266): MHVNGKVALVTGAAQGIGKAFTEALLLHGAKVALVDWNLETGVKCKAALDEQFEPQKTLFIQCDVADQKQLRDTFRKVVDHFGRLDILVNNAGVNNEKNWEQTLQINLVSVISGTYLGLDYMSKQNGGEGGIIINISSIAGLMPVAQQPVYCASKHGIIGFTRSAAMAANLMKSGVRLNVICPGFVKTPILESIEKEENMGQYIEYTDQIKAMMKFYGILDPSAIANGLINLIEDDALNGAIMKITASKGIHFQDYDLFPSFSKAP
Description: (§1) Radioactive prostaglandin F2α was incubated with cellfree preparations of different organs (containing prostaglandin-15-dehydrogenase) according to Hoult and Moore, British Journal of Pharmacology, Vol. 61 (1977), p. 615. After a suitable time the prostaglandins were extracted and separated by chromatography. Then the amount of remaining prostaglandin F2α was compared with the amounts of metabolites. The inhibiting effect was obtained by the addition of the compounds according to the invention during the incubation and comparison with control experiments without such addition. The results may be represented either as a concentration giving 50% inhibition of the prostaglandin inactivation, or as an inhibition in percent at a certain concentration of the studied compound. In the following table the results for some compounds according to the invention are shown compared to the known drug sulfasalazine.

[2] = target: T2, prostaglandin-15-dehydrogenase (Homo sapiens, UniProt P15428); assay: Inhibition of prostaglandin F2α inactivation in cell-free human placenta preparation; conditions: for IC50: Inhibition 50 %, read-out: concentration giving 50% inhibition of the prostaglandin inactivation (converted)
T2 construct: cellfree preparations of different organs (containing prostaglandin-15-dehydrogenase); from tissue; host or cells: human placenta
T2 sequence (P15428 1-266): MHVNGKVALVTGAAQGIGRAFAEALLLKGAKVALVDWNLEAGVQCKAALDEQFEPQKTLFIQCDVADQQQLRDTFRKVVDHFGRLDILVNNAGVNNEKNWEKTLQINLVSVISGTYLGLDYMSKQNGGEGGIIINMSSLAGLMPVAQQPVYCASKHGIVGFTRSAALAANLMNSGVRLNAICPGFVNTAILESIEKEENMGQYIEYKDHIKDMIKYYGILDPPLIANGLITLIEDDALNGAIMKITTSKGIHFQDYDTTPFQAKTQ
Description: as §1

[3] = target: T3, prostaglandin-15-dehydrogenase (Cavia porcellus, UniProt P70684); assay: Inhibition of prostaglandin F2α inactivation in cell-free guinea pig organ preparations; conditions: for inhibition at 2 µM: 2 μM (0,82 μg/ml); for inhibition at 50 µM: 50 μM (B 20,6 μg/ml; C 12,8 μg/ml)
T3 construct: cellfree preparations of different organs (containing prostaglandin-15-dehydrogenase); from tissue
T3 sequence (P70684 1-265): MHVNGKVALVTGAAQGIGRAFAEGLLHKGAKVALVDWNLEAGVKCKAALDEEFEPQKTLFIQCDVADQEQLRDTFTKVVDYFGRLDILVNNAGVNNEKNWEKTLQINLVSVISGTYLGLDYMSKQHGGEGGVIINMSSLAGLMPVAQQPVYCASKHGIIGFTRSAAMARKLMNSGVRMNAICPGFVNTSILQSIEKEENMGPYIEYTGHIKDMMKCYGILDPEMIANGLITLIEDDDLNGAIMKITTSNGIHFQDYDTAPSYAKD
Description: as §1

[4] = relative to compound A (sulfasalazine)

Row | SMILES | inhibition at 50 µM ([1]; Rat colon) [%] | IC50 ([2]; Human placenta) | inhibition at 2 µM ([3]; Guinea pig colon) [%] | inhibition at 2 µM ([3]; Guinea pig duodenum) [%] | inhibition at 2 µM ([3]; Guinea pig kidney) [%] | inhibition at 50 µM ([3]; Guinea pig kidney) [%] | inhibition at 2 µM ([1]; Rat colon) [%] | inhibition at 2 µM ([1]; Rat kidney) [%] | inhibition at 2 µM ([1]; Rat lung) [%] | inhibition at 2 µM ([1]; Rat stomach) [%] | inhibition at 50 µM ([2]; Human placenta, 50 μM (20,6 μg/ml)) [%] | times as active as the known compound A [2, 4] [times] | activity compared with compound A [1, 4]
1 | O=C(O)c1cc(/N=N/c2ccc(S(=O)(=O)Nc3ccccn3)cc2)ccc1O [A, sulfasalazine, reference compound] | 47.8 | 95 µM and 95.4 µM | – | – | – | – | – | – | – | – | – | – | –
2 | O=C(O)Cc1cc(N=Nc2ccc(S(=O)(=O)Nc3ccccn3)cc2)ccc1O [B, 2-hydroxy-5-[4-[[(2-pyridinyl)amino]sulfonyl]phenylazo]benzeneacetic acid] | – | 1.9 µM and 1.89 µM | 58.7 | 68.3 | 53.8 | 65.9 | 53.3 | 94.1 | 85.2 | 67.2 | 87.5 | 50 | –
3 | O=C(O)Cc1cc(N=Nc2ccccc2)ccc1O [C, 2-hydroxy-5-phenylazo-benzeneacetic acid] | 71.3 | – | – | – | – | 45.4 | – | – | – | – | – | – | significantly more active than compound A
